Laboratory results reported in ChEMBL document CHEMBL5108024, “New C-6 functionalized quinoline NorA inhibitors strongly synergize with ciprofloxacin against planktonic and biofilm growing resistant Staphylococcus aureus strains” (Eur J Med Chem, 2022).
Several values for one entry are separate records, joined by “and”; a condition that tells them apart may be missing. Equal values may be shown once.

The molecules below were run on Staphylococcus aureus (assay: Antibacterial activity against ciprofloxacin-susceptible wild type Staphylococcus aureus 1199 assessed as inhibition of bacterial growth by broth microdilution method). Conditions: not given.
Type: functional

SMILES | MIC
CCCOc1ccc(-c2cc(OCCN3CCCCC3)c3cc(Nc4ccccc4)ccc3n2)cc1 | > 50 µg/mL

The molecules below were run on Staphylococcus aureus (assay: Synergistic antibacterial activity against ciprofloxacin-resistant Staphylococcus aureus 1199B overexpressing norA and harboring A116E grlA mutant assessed as fold reduction in ciprofloxacin MIC at 6.25 uM by broth microdilution method). Conditions: not given.
Type: functional

SMILES | fold change (FC)
CCCOc1ccc(-c2cc(OCCN3CCCCC3)c3cc(Nc4ccccc4)ccc3n2)cc1 | 8

These molecules were tested on Staphylococcus aureus (assay: Synergistic antibacterial activity against Staphylococcus aureus 1199B overexpressing norA and harboring A116E grlA mutant assessed as four fold minimum potentiating concentration incubated in presence of ciprofloxacin by checkerboard assay). Conditions: not given.
Type: functional

SMILES | MPC
CCCOc1ccc(-c2cc(OCCN3CCCCC3)c3cc(Nc4ccccc4)ccc3n2)cc1 | 0.39 µg/mL

What follows are molecules tested on Staphylococcus aureus (assay: Synergistic antibacterial activity against Staphylococcus aureus 1199B overexpressing norA and harboring A116E grlA mutant assessed as sixteen fold minimum potentiating concentration incubated in presence of ciprofloxacin by checkerboard assay). Conditions: not given.
Type: functional

SMILES | MPC
CCCOc1ccc(-c2cc(OCCN3CCCCC3)c3cc(Nc4ccccc4)ccc3n2)cc1 | 0.78 µg/mL

The molecules below were run on Staphylococcus aureus (assay: Synergistic antibacterial activity against wild type Staphylococcus aureus 1199 assessed as fold reduction in ciprofloxacin MIC at >=3.13 ug/ml by checkerboard assay). Conditions: dose >= 3.13 µg/ml.
Type: functional

SMILES | fold change (FC)
CCCOc1ccc(-c2cc(OCCN3CCCCC3)c3cc(Nc4ccccc4)ccc3n2)cc1 | 4

The molecules below were run on Staphylococcus aureus (assay: Antibacterial activity against ciprofloxacin-resistant Staphylococcus aureus 1199B overexpressing norA and harboring A116E grlA mutant assessed as inhibition of bacterial growth by broth microdilution method). Conditions: not given.
Type: functional

SMILES | MIC
CCCOc1ccc(-c2cc(OCCN(CC)CC)c3cc(OC(F)(F)F)ccc3n2)cc1 | > 541 µM
CCCOc1ccc(-c2cc(OCCN3CCCCCC3)c3cc(C#N)ccc3n2)cc1 | > 582 µM
CCCOc1ccc(-c2cc(OCCN3CCCCCC3)c3cc(OC(F)(F)F)ccc3n2)cc1 | > 512 µM
CCCOc1ccc(-c2cc(OCCN3CCCCC3)c3cc(Nc4ccccc4)ccc3n2)cc1 | > 50 µg/mL and > 519 µM
CCCOc1ccc(-c2cc(OCCN3CCCCC3)c3cc(OC(F)(F)F)ccc3n2)cc1 | > 529 µM
CCCOc1ccc(-c2cc(OCCN3CCCCCC3)c3cc(Oc4ccccc4)ccc3n2)cc1 | > 503 µM

What follows are molecules tested on Staphylococcus aureus (assay: Inhibition of EtBr efflux in ciprofloxacin-resistant Staphylococcus aureus 1199B overexpressing norA and harboring A116E grlA mutant assessed as reduction in fluorescence intensity at 50 uM measured for 5 mins by microplate reader analysis relative to control). Conditions: not given.
Type: functional

SMILES | inhibition
CCCOc1ccc(-c2cc(OCCN(CC)CC)c3cc(OC(F)(F)F)ccc3n2)cc1 | 83%
CCCOc1ccc(-c2cc(OCCN3CCCCCC3)c3cc(C#N)ccc3n2)cc1 | 84.2%
CCCOc1ccc(-c2cc(OCCN3CCCCC3)c3cc(OCCC)ccc3n2)cc1 | 73.9%
CCCOc1ccc(-c2cc(OCCN3CCCCCC3)c3cc(OC(F)(F)F)ccc3n2)cc1 | 84.9%
CCCOc1ccc(-c2cc(OCCN3CCCCC3)c3cc(Nc4ccccc4)ccc3n2)cc1 | 84.2%
CCCOc1ccc(-c2cc(OCCN3CCCCC3)c3cc(OC(F)(F)F)ccc3n2)cc1 | 81.2%
CCCOc1ccc(-c2cc(OCCN3CCCCCC3)c3cc(Oc4ccccc4)ccc3n2)cc1 | 83%

The molecules below were run on Staphylococcus aureus (assay: Inhibition of EtBr efflux in ciprofloxacin-resistant Staphylococcus aureus 1199B overexpressing norA and harboring A116E grlA mutant assessed as reduction in fluorescence intensity at 10 uM measured for 5 mins by microplate reader analysis relative to control). Conditions: not given.
Type: functional

SMILES | inhibition
CCCOc1ccc(-c2cc(OCCN(CC)CC)c3cc(OC(F)(F)F)ccc3n2)cc1 | 69.2%
CCCOc1ccc(-c2cc(OCCN3CCCCCC3)c3cc(C#N)ccc3n2)cc1 | 86.8%
CCCOc1ccc(-c2cc(OCCN3CCCCCC3)c3cc(OC(F)(F)F)ccc3n2)cc1 | 70.4%
CCCOc1ccc(-c2cc(OCCN3CCCCC3)c3cc(Nc4ccccc4)ccc3n2)cc1 | 50.1%
CCCOc1ccc(-c2cc(OCCN3CCCCC3)c3cc(OC(F)(F)F)ccc3n2)cc1 | 86.9%
CCCOc1ccc(-c2cc(OCCN3CCCCCC3)c3cc(Oc4ccccc4)ccc3n2)cc1 | 66.8%
